Holding throughout (format): in vivo
Assay [1] relates to Echinochloa crus-galli (ECHCG). Put plainly: Example B post-emergence herbicidal activity, glasshouse pot test. As to conditions: 312 h, evaluated after 13 days, read-out: Post-emergence activity ECHCG (100=total damage to plant; 0=no damage to plant); for pest or weed control at 1000 g/ha: rate 1000 g/ha. Summed up:
(§1)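 After sowing in standard soil, pots were cultivated 1 day (pre-emergence) or 8 days (post-emergence), then treated with an aqueous spray of the formulated active ingredient (acetone/water 50:50, 0.5% Tween 20). Phytotoxicity was assessed on a 0–100 scale at 13 days.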

For assay [2], the system named is Setaria faberi (SETFA). The assay is described as above. Conditions: 312 h, evaluated after 13 days, read-out: Post-emergence activity SETFA (100=total damage to plant; 0=no damage to plant); for pest or weed control at 1000 g/ha: rate 1000 g/ha. Summed up: as §1
For assay [3], the system named is Amaranthus retroflexus (AMARE). Described as above. As to conditions: 312 h, evaluated after 13 days, read-out: Post-emergence activity AMARE (100=total damage to plant; 0=no damage to plant); for pest or weed control at 1000 g/ha: rate 1000 g/ha. Summed up:
as §1

The subject of assay [4] is Solanum nigrum (SOLNI). The description is as above. Conditions: 312 h, evaluated after 13 days, read-out: Post-emergence activity SOLNI (100=total damage to plant; 0=no damage to plant); for pest or weed control at 1000 g/ha: rate 1000 g/ha. Summed up: as §1
The test system of assay [5] is Avena fatua (AVEFA). Described as above. Conditions: 312 h, evaluated after 13 days, read-out: Post-emergence activity AVEFA (100=total damage to plant; 0=no damage to plant); for pest or weed control at 1000 g/ha: rate 1000 g/ha. Put shortly: as §1
Assay [6] has as its system Alopecurus myosuroides (ALOMY). The assay is described as above. Conditions: 312 h, evaluated after 13 days, read-out: Post-emergence activity ALOMY (100=total damage to plant; 0=no damage to plant); for pest or weed control at 1000 g/ha: rate 1000 g/ha. Put shortly: as §1
Assay [7] has as its system Echinochloa crus-galli (ECHCG). The assay can be described thus: Example B pre-emergence herbicidal activity, glasshouse pot test. As to conditions: 312 h, evaluated after 13 days, read-out: Pre-emergence activity ECHCG (100=total damage to plant; 0=no damage to plant); for pest or weed control at 1000 g/ha: rate 1000 g/ha. Summed up: as §1
The test system of assay [8] is Setaria faberi (SETFA). Described as above. As to conditions: 312 h, evaluated after 13 days, read-out: Pre-emergence activity SETFA (100=total damage to plant; 0=no damage to plant); for pest or weed control at 1000 g/ha: rate 1000 g/ha. Summed up: as §1
The test system of assay [9] is Amaranthus retroflexus (AMARE). The description is as above. As to conditions: 312 h, evaluated after 13 days, read-out: Pre-emergence activity AMARE (100=total damage to plant; 0=no damage to plant); for pest or weed control at 1000 g/ha: rate 1000 g/ha. Put shortly:
as §1

In assay [10] the test system is Solanum nigrum (SOLNI). The assay is described as above. Conditions: 312 h, evaluated after 13 days, read-out: Pre-emergence activity SOLNI (100=total damage to plant; 0=no damage to plant); for pest or weed control at 1000 g/ha: rate 1000 g/ha. Summed up: as §1
Assay [11] deals with Avena fatua (AVEFA). Described as above. As to conditions: 312 h, evaluated after 13 days, read-out: Pre-emergence activity AVEFA (100=total damage to plant; 0=no damage to plant); for pest or weed control at 1000 g/ha: rate 1000 g/ha. Put shortly:
as §1

In assay [12] the test system is Alopecurus myosuroides (ALOMY). The description is as above. Conditions: 312 h, evaluated after 13 days, read-out: Pre-emergence activity ALOMY (100=total damage to plant; 0=no damage to plant); for pest or weed control at 1000 g/ha: rate 1000 g/ha. Put shortly: as §1

SMILES strings stand for the structures.

Turning to `C#CCOC(=O)OC1=C(c2cc(-c3ccc(Cl)cc3)ccc2CC)C(=O)C(C)(C)OC1(C)C` [Compound D-15], the pest or weed control at 1000 g/ha in assay [1] was 100%; in the assay on Setaria faberi (SETFA) [2], 100%; in assay [3], 0%; with Solanum nigrum (SOLNI) [4] it was 0%; in the assay on Avena fatua (AVEFA) [5], 60%; in [6], 80%. Also, the pest or weed control at 1000 g/ha came to 100% in [7]; 100% with Setaria faberi (SETFA) [8]; 0% in [9]; 0% with Solanum nigrum (SOLNI) [10]; 60% with Avena fatua (AVEFA) [11]; 80% in assay [12].
Consider `Cc1ccc(-c2cccc(C#N)c2)cc1C1=C(O)C(C)(C)OC(C)(C)C1=O` [Compound A-22], for which the pest or weed control at 1000 g/ha was found to be 80% in assay [1]; 20% in the assay on Setaria faberi (SETFA) [2]; 0% in assay [3]; 90% in the assay with Solanum nigrum (SOLNI) [4]; 0% in the assay with Avena fatua (AVEFA) [5]; 30% in assay [6]. The pest or weed control at 1000 g/ha in [7] is 90%; with Setaria faberi (SETFA) [8] it was 40%; in assay [9] it was 30%; in the assay on Solanum nigrum (SOLNI) [10], 60%; in the assay with Avena fatua (AVEFA) [11] it was 20%; in assay [12], 40%.
With `Cc1ccc(-c2ccc(Cl)nc2Cl)cc1C1=C(O)C(C)(C)OC(C)(C)C1=O` [Compound A-58], the pest or weed control at 1000 g/ha in [1] is 100%; with Setaria faberi (SETFA) [2], 90%; in [3], 70%; with Solanum nigrum (SOLNI) [4], 30%; in the assay with Avena fatua (AVEFA) [5], 90%; in assay [6], 90%. Besides, the pest or weed control at 1000 g/ha in assay [7] was 100%; in the assay with Setaria faberi (SETFA) [8], 100%; in [9], 20%; in the assay with Solanum nigrum (SOLNI) [10] it was 20%; in the assay on Avena fatua (AVEFA) [11], 60%; in assay [12], 80%.
`CCc1ccc(-c2ccc(Cl)cc2)cc1C1=C(OC(=O)COC)C(C)(C)OC(C)(C)C1=O` [Compound D-12]: the pest or weed control at 1000 g/ha in [1] worked out at 100%; in the assay with Setaria faberi (SETFA) [2], 100%; in [3] it was 0%; in the assay on Solanum nigrum (SOLNI) [4] it was 0%; with Avena fatua (AVEFA) [5] it was 90%; in assay [6], 90%. Besides, the pest or weed control at 1000 g/ha worked out at 100% in assay [7]; 100% in the assay with Setaria faberi (SETFA) [8]; 0% in assay [9]; 0% in the assay with Solanum nigrum (SOLNI) [10]; 60% in the assay on Avena fatua (AVEFA) [11]; 90% in [12].
On to `CCc1ccc(-c2ccc(Cl)cc2)cc1C1=C(OC(=O)C(C)CC)C(C)(C)OC(C)(C)C1=O` [Compound D-11], for which the pest or weed control at 1000 g/ha turned out to be 100% in assay [1]; 90% in the assay with Setaria faberi (SETFA) [2]; 0% in assay [3]; 0% with Solanum nigrum (SOLNI) [4]; 0% with Avena fatua (AVEFA) [5]; 40% in assay [6]. The pest or weed control at 1000 g/ha in assay [7] was determined as 20%; in the assay on Setaria faberi (SETFA) [8], 90%; in assay [9] it was 0%; in the assay on Solanum nigrum (SOLNI) [10] it was 0%; in the assay with Avena fatua (AVEFA) [11], 0%; in assay [12] it was 20%.
On to `CCc1ccc(-c2ccc(Cl)c(C)c2)cc1C1=C(O)C(C)(C)C(=O)C(C)(C)C1=O` [Compound B-2], for which the pest or weed control at 1000 g/ha was 80% in [1]; 20% in the assay on Setaria faberi (SETFA) [2]; 70% in assay [3]; 40% in the assay on Solanum nigrum (SOLNI) [4]; 0% with Avena fatua (AVEFA) [5]; 0% in assay [6]. Besides, the pest or weed control at 1000 g/ha in [7] turned out to be 70%; in the assay on Setaria faberi (SETFA) [8] it was 0%; in [9], 90%; in the assay with Solanum nigrum (SOLNI) [10] it was 30%; in the assay with Avena fatua (AVEFA) [11] it was 20%; in assay [12] it was 0%.
Take `Cc1ccc(-c2ccc(Cl)cc2F)cc1C1=C(O)C(C)(C)C(=O)C(C)(C)C1=O` [Compound B-18]: the pest or weed control at 250 g/ha in assay [1] (rate 250 g/ha) is 60%; in the assay on Setaria faberi (SETFA) [2] (rate 250 g/ha), 70%; in assay [3] (rate 250 g/ha), 0%; in the assay on Solanum nigrum (SOLNI) [4] (rate 250 g/ha) it was 0%; in the assay on Avena fatua (AVEFA) [5] (rate 250 g/ha), 0%; in assay [6] (rate 250 g/ha), 10%. In addition, the pest or weed control at 250 g/ha in [7] (rate 250 g/ha) is 0%; in the assay on Setaria faberi (SETFA) [8] (rate 250 g/ha), 20%; in [9] (rate 250 g/ha), 0%; with Solanum nigrum (SOLNI) [10] (rate 250 g/ha), 0%; in the assay with Avena fatua (AVEFA) [11] (rate 250 g/ha), 0%; in assay [12] (rate 250 g/ha) it was 40%.
Regarding `Cc1ccc(-c2ccc(Cl)nc2)cc1C1=C(O)C(C)(C)OC(C)(C)C1=O` [Compound A-54], the pest or weed control at 1000 g/ha in assay [1] was 90%; in the assay with Setaria faberi (SETFA) [2] it was 80%; in assay [3], 0%; with Solanum nigrum (SOLNI) [4], 0%; in the assay on Avena fatua (AVEFA) [5], 50%; in [6], 80%. The pest or weed control at 1000 g/ha in [7] was 100%; in the assay on Setaria faberi (SETFA) [8] it was 90%; in assay [9], 20%; with Solanum nigrum (SOLNI) [10], 0%; in the assay with Avena fatua (AVEFA) [11] it was 80%; in [12], 70%.
Regarding `CCC(=O)OC1=C(c2cc(-c3ccc(Cl)cc3)ccc2CC)C(=O)C(C)(C)OC1(C)C` [Compound D-8], the pest or weed control at 1000 g/ha in assay [1] turned out to be 100%; in the assay with Setaria faberi (SETFA) [2] it was 100%; in [3] it was 0%; with Solanum nigrum (SOLNI) [4], 0%; in the assay on Avena fatua (AVEFA) [5] it was 10%; in assay [6], 60%. For the same compound, the pest or weed control at 1000 g/ha was 90% in [7]; 90% with Setaria faberi (SETFA) [8]; 0% in [9]; 0% in the assay with Solanum nigrum (SOLNI) [10]; 0% in the assay with Avena fatua (AVEFA) [11]; 40% in assay [12].

Values taken from patent publication US8680012B2, “4-phenyl-pyrane-3,5-diones,4-phenyl-thiopyrane-3,6-diones and cyclohexanetriones as novel herbicides” (Syngenta Crop Protection LLC, priority 2006, dated 2014).
